Data reported in publication PMC10256776, “Cryo-EM structures of ClC-2 chloride channel reveal the blocking mechanism of its specific inhibitor AK-42” (Nature Communications, 2023).
Positions count from the first letter of the chain named.

Experiments:
Experiment in all cases: whole-cell patch clamp, […] AK-42
Assay type in all cases: cell-based
ClC-2 [1] = target: T1, ClC-2 (Homo sapiens, UniProt P51788, K394A)
T1 construct: gene CLCN2; human ClC-2 mutant expressed in CHO-K1 cells
T1 sequence (P51788 2-898 K394A): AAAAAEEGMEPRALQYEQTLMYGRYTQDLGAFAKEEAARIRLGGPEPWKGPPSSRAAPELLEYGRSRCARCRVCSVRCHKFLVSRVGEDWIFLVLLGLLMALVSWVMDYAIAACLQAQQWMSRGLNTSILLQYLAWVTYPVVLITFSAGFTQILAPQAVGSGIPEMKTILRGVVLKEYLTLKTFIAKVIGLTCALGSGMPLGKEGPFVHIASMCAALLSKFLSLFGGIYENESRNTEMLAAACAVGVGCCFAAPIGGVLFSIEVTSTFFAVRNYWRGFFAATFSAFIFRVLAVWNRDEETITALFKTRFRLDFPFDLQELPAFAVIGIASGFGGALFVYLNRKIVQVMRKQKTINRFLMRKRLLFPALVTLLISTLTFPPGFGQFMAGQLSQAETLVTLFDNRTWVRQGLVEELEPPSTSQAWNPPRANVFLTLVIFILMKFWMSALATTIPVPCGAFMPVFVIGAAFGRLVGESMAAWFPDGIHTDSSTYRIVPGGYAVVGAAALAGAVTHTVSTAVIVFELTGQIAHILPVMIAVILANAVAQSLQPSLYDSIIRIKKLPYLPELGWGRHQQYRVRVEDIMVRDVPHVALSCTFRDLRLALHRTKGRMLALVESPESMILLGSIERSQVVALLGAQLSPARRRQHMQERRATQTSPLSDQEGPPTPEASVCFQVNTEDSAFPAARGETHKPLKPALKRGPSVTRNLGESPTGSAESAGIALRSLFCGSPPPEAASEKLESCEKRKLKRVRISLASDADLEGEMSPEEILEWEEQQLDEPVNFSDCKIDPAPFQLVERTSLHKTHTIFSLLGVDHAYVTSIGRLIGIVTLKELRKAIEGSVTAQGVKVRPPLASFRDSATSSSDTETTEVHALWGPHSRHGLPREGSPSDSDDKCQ

ClC-2 [2] = target: T2, ClC-2 (Homo sapiens, UniProt P51788, F459A)
T2 construct: gene CLCN2; human ClC-2 mutant expressed in CHO-K1 cells
T2 sequence (P51788 2-898 F459A): T1 sequence (P51788 2-898 K394A) with A393K, F458A

ClC-2 [3] = target: T3, ClC-2 (Homo sapiens, UniProt P51788, K394R)
T3 construct: gene CLCN2; human ClC-2 mutant expressed in CHO-K1 cells
T3 sequence (P51788 2-898 K394R): T1 sequence (P51788 2-898 K394A) with A393R

O=C(O)c1cccnc1Nc1c(Cl)ccc(OCc2ccccc2)c1Cl [AK-42, 2-((3-(benzyloxy)−2,6-dichlorophenyl)amino)nicotinic acid]
whole-cell patch clamp, 30 nM AK-42 (ClC-2 [1]): K394R and K394A showed a slightly lower but not significant percent inhibition of AK-42 than wild-type ClC-2 | whole-cell patch clamp, 30 nM AK-42 (ClC-2 [2]): the mutation F459A in the hydrophobic pocket shows a higher percent inhibition value than wild-type ClC-2 | whole-cell patch clamp, 30 nM AK-42 (ClC-2 [3]): K394R and K394A showed a slightly lower but not significant percent inhibition of AK-42 than wild-type ClC-2
